The values that follow come from patent US8106047B2, “Triazolophthalazines” (NYCOMED GmbH, priority 2005, dated 2012).

Where only a bound is given, the exact number is not on record here.

In general, melting point refers to the temperature, or range, at which the solid turns liquid.

For one series, the system named is HUVEC monolayers. Briefly: Inhibition of macromolecule (HRP) permeability of thrombin-stimulated HUVEC monolayers. The class given is cell-based, human. The following applies: Homo sapiens, 1 h; HUVEC on Transwells, 1 μM RP73401, 10 μM Motapizone, 1 mM SNP or 100 nM ANP, 1 U/ml thrombin, HRP passage after 60 min; read-out: Inhibition of SNP- or ANP-induced permeability, −log IC50 [mol/l] (converted). As for the experimental part: Method to Assess Inhibition of Macromolecule Permeability of HUVEC Monolayers
The procedure to measure macromolecule permeability of endothelial cell monolayers followed the method described by Langeler & van Hinsbergh (1988) with modifications. Human umbilical vein endothelial cells were isolated from umbilical cords according to standard procedures (Jaffe et al. 1973) and cultured in endothelial cell basal medium (EBM) supplemented with 2% FCS, 0.5 ng/ml VEGF, 10 ng/ml bFGF, 5 ng/ml EGF, 20 ng/ml Long R3 IGF-1, 0.2 μg/ml hydrocortisone, 1 μg/ml ascorbic acid, 22.5 μg/ml heparin, 50 μg/ml gentamicin, 50 ng/ml amphotericin B (EGM2 purchased from Promocell GmbH, Heidelberg, Germany). At confluency, cells were trypsinized and replated at 73000 cells per well on 3 μm polycarbonate filter Transwell inserts (Costar GmbH, Bodenheim, Germany) precoated with 10 μg cm^2−1 Fibronectin (Sigma, Taufkirchen, Germany). HUVECs were cultured in EGM2 (100 μl in the upper wells and 600 μl in the lower wells) over four days prior the experiments and medium was changed every other day. At the day of the experiment culture medium was replaced by M199 with 1% human serum albumin. Endothelial cells were preincubated with cyclic nucleotide modifiers (the selective PDE3 inhibitor motapizone, the selective PDE4 inhibitor RP73401, the cGMP generators ANP or SNP and PDE2 inhibitors) for 15 min. HUVECs were then stimulated with Thrombin (1 U ml^−1) (Sigma, Taufkichen, Germany) and horsh radish peroxidase (5 μg/ml) (Sigma, Taufkirchen, Germany) as the macromolecule marker protein was added to the upper wells. Following 1 h incubation time Transwells were removed and the activity of horsh radish peroxidase that penetrated the endothelial cell monolayer was measured in the lower wells with the 3,3′,5,5′-tetramethylbenzidine liquid substrate system from Sigma (Taufkirchen, Germany).
In parallel, compounds according to the invention can inhibit Thrombin-induced permeability of HUVEC monolayers for horsh radish peroxidase (HRP) as a macromolecule marker. […] The concentration-dependent inhibition of HRP permeability at different concentrations was assessed from the percent inhibition in the presence and absence of the PDE2 inhibitors and in the presence of 1 μM RP73401, 10 μM Motapizone and 100 nM ANP.
Inhibition of SNP- or ANP-Induced Permeability of HUVEC Monolayers:
HUVEC cells on 3 μm polycarbonate filters (Transwells) were preincubated with 1 μM RP73401 (to block PDE4) and 10 μM Motapizone (to block PDE3), 1 mM SNP or 100 nM ANP and test sample over 15 min and then stimulated with 1 U/ml thrombin. HRP passage into the lower wells was assessed after 60 min.

In turn, `COc1ccc(-c2nnc3c4ccccc4c(Nc4cccc(S(=O)(=O)N5CCCCC5)c4)nn23)cc1` [Compound 30, [3-(4-Methoxy-phenyl)-[1,2,4]triazolo[3,4-a]phthalazin-6-yl]-[3-(piperidine-1-sulfonyl)-phenyl]-amine] gave a melting point of 275 to 280 °C. Also, in the series on HUVEC monolayers, the IC50 is 0.000501 to 0.126 µM.

Take `COc1ccc(-c2nnc3c4ccccc4c(Nc4ccc(NS(C)(=O)=O)cc4)nn23)cc1` [Compound 3, N-{4-[3-(4-Methoxy-phenyl)-[1,2,4]triazolo[3,4-a]phthalazin-6-ylamino]-phenyl}-methanesulfonamide]: the melting point lay within 318 to 320 °C. Further, the IC50 in the series with HUVEC monolayers is 0.000501 to 0.126 µM.

On to `COc1ccc(-c2nnc3c4ccccc4c(Nc4ccc(S(=O)(=O)N5CCOCC5)cc4)nn23)cc1` [Compound 22, [3-(4-Methoxyphenyl)-[1,2,4]triazolo[3,4-a]phthalazin-6-yl]-[4-(morpholine-4-sulfonyl)-phenyl]-amine], for which the melting point was 330 °C. In addition, in the series on HUVEC monolayers, the IC50 was 0.000501 to 0.126 µM.

Consider `COc1ccc(-c2nnc3c4ccccc4c(Nc4ccc(S(=O)(=O)Nc5ncccn5)cc4)nn23)cc1` [Compound 21, 4-[3-(4-Methoxyphenyl)-[1,2,4]triazolo[3,4-a]phthalazin-6-ylamino]-N-pyrimidin-2-yl-benzenesulfonamide], for which the melting point is > 350 °C. Moreover, the IC50 in the series on HUVEC monolayers was 0.000501 to 0.126 µM.

Consider `COc1ccc(-c2nnc3c4ccccc4c(Nc4ccc(NS(=O)(=O)N5CCOCC5)cc4)nn23)cc1` [Compound 6, Morpholine-4-sulfonic acid {4-[3-(4-methoxy-phenyl)-[1,2,4]triazolo[3,4-a]phthalazin-6-ylamino]-phenyl}-amide], for which the melting point lay within 266 to 270 °C. Besides, the IC50 with HUVEC monolayers is 0.000501 to 0.126 µM.

Consider `CN(C)S(=O)(=O)c1cccc(Nc2nn3c(-c4ccc(Br)cc4)nnc3c3ccccc23)c1` [Compound 28, [3-(N,N-dimethylsulfamoyl)-phenyl]-[3-(4-bromo-phenyl)-[1,2,4]triazolo[3,4-a]phthalazin-6-yl]-amine], for which the melting point was 290 to 293 °C. In the series with HUVEC monolayers, the IC50 was 0.000501 to 0.126 µM.

Regarding `COc1ccc(-c2nnc3c4ccccc4c(Nc4cccc(NS(=O)(=O)c5ccc(OC)cc5)c4)nn23)cc1` [Compound 10, 4-Methoxy-N-{3-[3-(4-methoxy-phenyl)-[1,2,4]triazolo[3,4-a]phthalazin-6-ylamino]-phenyl}-benzenesulfonamide], the melting point is 328 to 331 °C (dec.). Moreover, in the series on HUVEC monolayers, the IC50 was 0.000501 to 0.126 µM.

In turn, `COc1ccc(-c2nnc3c4ccccc4c(Nc4cccc(NS(=O)(=O)c5cccc(OC)c5)c4)nn23)cc1` [Compound 14, 3-Methoxy-N-{3-[3-(4-methoxy-phenyl)-[1,2,4]triazolo[3,4-a]phthalazin-6-ylamino]-phenyl}-benzenesulfonamide] had a melting point of 328 to 332 °C. Moreover, in the series on HUVEC monolayers, the IC50 is 0.000501 to 0.126 µM.

Turning to `CN(C)c1ccccc1-c1nnc2c3ccccc3c(Nc3cccc(NS(=O)(=O)N(C)C)c3)nn12` [Compound 26], the melting point was in the range of 235 to 239 °C. Besides, the IC50 in the series with HUVEC monolayers was 0.000501 to 0.126 µM.

In the case of `COc1ccc(-c2nnc3c4ccccc4c(Nc4cccc(S(=O)(=O)N5CCOCC5)c4)nn23)cc1` [Compound 25, [3-(4-Methoxyphenyl)-[1,2,4]triazolo[3,4-a]phthalazin-6-yl]-[3-(morpholine-4-sulfonyl)-phenyl]-amine], the melting point worked out at 265.4 °C. Besides, the IC50 in the series with HUVEC monolayers was 0.000501 to 0.126 µM.

The molecule `COc1ccc(-c2nnc3c4ccccc4c(Nc4cccc(S(=O)(=O)N5CCCC5)c4)nn23)cc1` [Compound 29, [3-(4-Methoxy-phenyl)-[1,2,4]triazolo[3,4-a]phthalazin-6-yl]-[3-(pyrrolidine-1-sulfonyl)-phenyl]-amine] yielded a melting point of 292 to 295 °C. The IC50 in the series with HUVEC monolayers is 0.000501 to 0.126 µM.

As for `COc1ccc(-c2nnc3c4ccccc4c(Nc4cccc(NS(C)(=O)=O)c4)nn23)cc1` [Compound 19, N-{3-[3-(4-Methoxyphenyl)-[1,2,4]triazolo[3,4-a]phthalazin-6-ylamino]-phenyl}-methanesulfonamide], the melting point stood at 304.9 °C. Besides, the IC50 in the series on HUVEC monolayers is 0.000501 to 0.126 µM.

For the molecule `COc1ccc(-c2nnc3c4ccccc4c(Nc4cccc(NS(=O)(=O)c5ccc(C)cc5)c4)nn23)cc1` [Compound 9, N-{3-[3-(4-Methoxy-phenyl)-[1,2,4]triazolo[3,4-a]phthalazin-6-ylamino]-phenyl}-4-methyl-benzenesulfonamide], the melting point is 336 to 346 °C (dec.). In the series with HUVEC monolayers, the IC50 was 0.000501 to 0.126 µM.

As for `COc1ccc(-c2nnc3c4ccccc4c(Nc4ccc(NS(=O)(=O)c5cccs5)cc4)nn23)cc1` [Compound 1, Thiophene-2-sulfonic acid {4-[3-(4-methoxy-phenyl)-[1,2,4]triazolo[3,4-a]phthalazin-6-ylamino]-phenyl}-amide], the melting point lay in the range of 351 to 353 °C. Further, in the series with HUVEC monolayers, the IC50 is 0.000501 to 0.126 µM.

On to `COc1ccc(-c2nnc3c4ccccc4c(Nc4cccc(NS(=O)(=O)Cc5ccccc5)c4)nn23)cc1` [Compound 15, N-{3-[3-(4-Methoxy-phenyl)-[1,2,4]triazolo[3,4-a]phthalazin-6-ylamino]-phenyl}-1-phenyl-methanesulfonamide], for which the melting point was in the range of 289 to 292 °C. Besides, the IC50 with HUVEC monolayers was 0.000501 to 0.126 µM.

As for `CN(C)S(=O)(=O)Nc1cccc(Nc2nn3c(-c4ccccc4F)nnc3c3ccccc23)c1` [Compound 31], the melting point is 252 to 256 °C. In the series on HUVEC monolayers, the IC50 is 0.000501 to 0.126 µM.
